Target: T1, sMMO (Methylosinus trichosporium, UniProt P27353)
T1 construct: endogenous in cells; host or cells: M. trichosporium OB3b whole cells, grown without copper (chemostat or batch)
T1 sequence (P27353 1-526): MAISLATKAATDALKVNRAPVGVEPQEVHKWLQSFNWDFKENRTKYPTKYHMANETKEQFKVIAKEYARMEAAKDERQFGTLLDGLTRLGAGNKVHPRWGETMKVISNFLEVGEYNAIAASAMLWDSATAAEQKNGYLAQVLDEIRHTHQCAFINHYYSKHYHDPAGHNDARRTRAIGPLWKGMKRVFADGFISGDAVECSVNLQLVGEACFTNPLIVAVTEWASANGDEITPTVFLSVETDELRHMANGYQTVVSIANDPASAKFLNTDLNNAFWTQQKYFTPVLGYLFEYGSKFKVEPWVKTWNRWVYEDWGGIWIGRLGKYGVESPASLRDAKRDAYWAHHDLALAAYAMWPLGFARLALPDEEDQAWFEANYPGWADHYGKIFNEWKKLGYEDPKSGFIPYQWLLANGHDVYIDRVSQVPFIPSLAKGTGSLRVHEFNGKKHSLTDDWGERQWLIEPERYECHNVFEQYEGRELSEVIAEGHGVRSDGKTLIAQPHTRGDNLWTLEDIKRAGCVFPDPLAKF
T1 sequence (P27354 1-394 partner): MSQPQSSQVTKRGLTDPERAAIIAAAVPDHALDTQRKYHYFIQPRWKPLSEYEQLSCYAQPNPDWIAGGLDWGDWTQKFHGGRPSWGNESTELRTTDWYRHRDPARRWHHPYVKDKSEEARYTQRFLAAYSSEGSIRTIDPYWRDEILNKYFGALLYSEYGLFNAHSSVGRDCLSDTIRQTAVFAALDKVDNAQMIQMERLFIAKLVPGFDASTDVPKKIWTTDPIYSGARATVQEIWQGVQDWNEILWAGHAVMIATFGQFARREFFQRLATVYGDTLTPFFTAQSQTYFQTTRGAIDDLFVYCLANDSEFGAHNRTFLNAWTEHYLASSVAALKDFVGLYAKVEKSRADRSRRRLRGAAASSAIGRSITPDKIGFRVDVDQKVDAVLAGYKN
T1 sequence (P27355 1-169 partner): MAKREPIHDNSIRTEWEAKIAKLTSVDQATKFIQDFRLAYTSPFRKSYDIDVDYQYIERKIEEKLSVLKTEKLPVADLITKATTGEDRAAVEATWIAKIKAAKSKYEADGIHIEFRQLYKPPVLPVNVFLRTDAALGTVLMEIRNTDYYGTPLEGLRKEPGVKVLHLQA
Experiment: sMMO activity reactivity assay, inhibitor trials
Type: cell-based, M. trichosporium OB3b
Method: M. trichosporium OB3b cultures were grown under plus copper (pMMO expressed) or minus copper (sMMO expressed) conditions using chemostat or batch culture conditions. Aliquots of culture (˜100 ml) were harvested by centrifugation, and concentrated 50-fold in fresh media. Pelleting cells in this manner ensured that all residual methane was eliminated, increased ease of measuring protein, and made activity assays as brief as possible. Assays were performed in 30 ml crimp cap reaction vials with 4 ml of media (either +Cu or −Cu) with 10 mM sodium formate. To initiate assays, 100 µl of the 50× cell suspension was added to reaction vials with a plastic syringe. Short descriptions of activity assays follow.
Due to the relative insolubility of methane, large volumes should be added to reaction vials to achieve concentrations in the aqueous phase (Cw) above the concentration of methane where the velocity of methane consumption (V) is equal to 0.5Vmax for minus copper grown M. trichosporium OB3b cultures. These large methane additions make direct measurement of methane consumption in short-term assays unlikely, therefore the accumulation of ethylene oxide (ETO) upon the oxidation of ethylene (ETH) was used as a surrogate measurement. Reaction vials were prepared as described above and 5 ml of ETH added as an overpressure. The appearance of ETO was monitored by gas chromatography evaluation of Cw over the course of 30 minutes (FIG. 39A). Killed cells (boiled) served as a negative control. pMMO is a copper enzyme and can be inhibited by allylthiourea (ATU), while sMMO (an iron enzyme) is insensitive to inhibition by ATU. The ETH to ETO assay described above was repeated with 10 μM ATU to discriminate between sMMO and pMMO activity.
Metabolic activity test methods have been developed to monitor specific activities in M. trichosporium OB3b cultures. A naphthalene oxidation assay was used to determine if sMMO is being expressed. An ethylene to ethylene oxide reaction assay and a methane oxidation assay was used to quantify MMO activity, and a methanol oxidation assay was used to estimate MDH activity. Concurrent batch metabolic tests can be conducted to investigate methanol inhibition of methane oxidation, cyclopropane to cyclopropanol conversion and concurrent/subsequent cyclopropanol inhibition of MDH activity, the effect of cyclopropanol inhibition on growth yield, and the effects of high oxygen concentration. Once stable operation and baseline metabolic monitoring in the chemostat have been achieved, inhibitor can be added to evaluate chemostat operation under methanol-producing conditions.
MMO activity has been measured via both methane (CH4) consumption and ethylene oxide (ETO) production upon oxidation of the non-growth substrate ethylene (ETH, Table 4). While ETO production matches methane consumption for pMMO, ETH is not as good a substrate for sMMO as methane. Nevertheless, the ETO accumulation assay is quick (<30 min) and can be used to screen for activity before starting a larger experiment.
The effect of salts NaCl, NH4Cl and CaCl2 on MMO and MDH activity was evaluated using the reactivity assays described above.

C1CC1 [CP, cyclopropane]
Fraction of Activity Remaining, sMMO (CP 03 μmol): 0.9
Fraction of Activity Remaining, sMMO (CP 32 μmol): 0.9
Fraction of Activity Remaining, sMMO (CP 64 μmol): 0.8

Reference: patent publication US20180258381A1, “BIO-LAMINA BIOREACTORS AND METHODS OF MAKING AND USING THE SAME” (Oregon State University, priority 2015, published 2018)
